Source: patent US8263643B2, “Polyphenol compounds with modulating neurotransmitter release” (Sungkyunkwan University Foundation for Corporate …, priority 2007, dated 2012)

Tests used:
PC12 cell = test: Inhibition of [3H]-norepinephrine release from PC12 cells; format: cell-based; conditions: normal PC12 cells, FIG. 4
Protocol: PC12 cells were cultured in a Ham's F12K medium where 10% […], 5% fetal bovine serum, and antibiotics were added in a collagen-coated plate (60 mm dish). In subculture, after sucking of the medium, 2 ml of PBS was added and cells were separated from a dish wall through pipetting. Then, centrifugation with 1,000×g for 5 minutes was carried out to obtain cells. A new medium was introduced, and a cell pellet was dispersed through pipetting and was loaded onto a new culture plate. And culture was carried out at 37° C. in a culture medium providing 5% CO2 gas. [^3H]-norepinephrine used for the experiment was purchased from Amersham. After sucking of the medium in the plate of PC12 cells, PBS was added and cells were separated from a plate wall. Then, the number of cells was measured by a hemacytometer, and the cells were dispersedly inoculated into a new medium at a concentration of 2×10^5 cell/ml. After 24 hours, a buffer solution ([^3H]—NE, 1.5 μCi/ml) for assay of norepinephrine was added, and then the cells were induced in a carbon dioxide incubator for 90 minutes. After the reaction, the buffer solution was removed and the cells were washed three times with PBS. Then, a new medium and each polyphenol compound were loaded and a reaction was performed for 30 minute. […]

[1] = target: T1, SNARE complex (SNAP25, SynH3, Vps) (UniProt P60879+P63045+Q16623); test: SDS-PAGE analysis of SNARE complex formation; format: biochemical; conditions: for Inhibition of SNARE complex formation (in words): FIG. 2, concentration series; for SNARE complex formation (%): control = 100, footnote: [phenolic compound]:SNAP-25 = 1:1, SNARE proteins 10 μM each, polyphenol 100 μM, room temperature 30 min; for Ratio for inhibition by 50% (IR50), SNARE complex formation: molar concentration ratio phenolic compound:SNAP-25, average of at least three measurements
T1 construct: SynH3 (AF217197); Vps (NM012663); made in house; host or cells: E. coli (Codon (+) RIL, Novagen)
Protocol: A SNARE complex is strong enough so as not to be untwisted by SDS. On the basis of such a property, a SDS-PAGE analysis was performed in order to determine the formation of a SNARE complex. Polyphenol compounds used in the present Example were purchased from Sigma-Aldrich, Wako Chemical, and Extrasynthese.
In order to produce SNARE proteins, SNARE proteins, such as, SNAP25 (NM011428), syntaxin 1A (AF217197), VAMP2 (NM012663), SynH3 (AF217197), and Vps (NM012663), were purified in biologically transformed E. coli (Codon (+) RIL, Novagen).
Then, the materials were quickly mixed by a vortex, and were reacted at room temperature for 30 minutes. […]

[2] = target: T2, membrane fusion caused by SNARE (SNAP25, syntaxin 1A, VAMP2) (UniProt P60879+P63045+Q16623); test: Membrane fusion assay with SNARE-reconstituted liposomes (fluorescence); format: biochemical; conditions: for remaining activity at 20 µM: 20 μM phenolic compound, 100% = no inhibitor added, read-out: Membrane fusion caused by SNARE (% of fusion without inhibitor); for Reduction of membrane fusion (in words): FIG. 3; for Ratio for inhibition by 50% (IR50), membrane fusion: molar concentration ratio phenolic compound:SNAP-25, average of at least three measurements
T2 construct: made in house; host or cells: E. coli (Codon (+) RIL, Novagen)
Protocol: In order to produce SNARE proteins, SNARE proteins, such as SNAP25 (NM011428), syntaxin 1A (AF217197), and VAMP2 (NM012663), were purified in biologically transformed E. coli (Codon (+) RIL, Novagen).
In order to prepare liposome (fine membrane) marked with a fluorescent substance, POPC (62 mol %), DOPS (35 mol %), NBD-PS (1.5 mol %) and a fluorescent substance Rhodamin-PE (1.5 mol %) were mixed to obtain 10 mM of liposome (v-vesicle). Also, in order to prepare a liposome not marked with a fluorescent substance, DOPS and POPC were mixed in a molar concentration ratio of 35:65 to obtain 50 mM of liposome (t-vesicle). In order to prepare a complex of the purified SNAP25 and syntaxin 1a, the SNAP25 and the syntaxin 1a were mixed in a molar concentration ratio of 1:1, and then were reacted at room temperature for 1 hour. Then, the resultant mixture and the liposome not marked with a fluorescent substance were mixed in a molar ratio of 100:1. The VAMP2 and the liposome marked with a fluorescent substance were mixed in a molar ratio of 50:1. Then, each of the two kinds of liposomes was dialyzed by using 10 kDa dialyzing membrane through agitation at 4° C. for 24 hours, and the liposomes were mixed in a ratio of 3:7 (v-vesicle t-visicle). Next, fluorescence was measured by using a fluorometer (SpectraMax M2 manufactured by Molecular Device).
Herein, 100% indicates the degree of membrane fusion in the state where no inhibitor was added. As the value is smaller, the inhibiting degree is higher.

T2 sequence (P60879 whole entry, the tested form may be a part): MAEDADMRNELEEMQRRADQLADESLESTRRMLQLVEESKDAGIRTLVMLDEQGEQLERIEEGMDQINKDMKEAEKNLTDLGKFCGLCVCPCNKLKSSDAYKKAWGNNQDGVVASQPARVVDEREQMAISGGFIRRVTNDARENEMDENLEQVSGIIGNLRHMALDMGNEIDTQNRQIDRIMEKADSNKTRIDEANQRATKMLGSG
T2 sequence (Q16623 whole entry, the tested form may be a part): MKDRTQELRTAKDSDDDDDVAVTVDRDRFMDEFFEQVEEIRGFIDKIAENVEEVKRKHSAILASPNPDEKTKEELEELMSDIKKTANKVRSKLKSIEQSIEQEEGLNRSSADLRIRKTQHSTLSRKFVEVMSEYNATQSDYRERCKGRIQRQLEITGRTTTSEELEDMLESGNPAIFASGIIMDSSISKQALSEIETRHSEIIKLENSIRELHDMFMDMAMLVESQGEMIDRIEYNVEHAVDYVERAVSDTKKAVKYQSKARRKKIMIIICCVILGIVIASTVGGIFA
T2 sequence (P63045 whole entry, the tested form may be a part): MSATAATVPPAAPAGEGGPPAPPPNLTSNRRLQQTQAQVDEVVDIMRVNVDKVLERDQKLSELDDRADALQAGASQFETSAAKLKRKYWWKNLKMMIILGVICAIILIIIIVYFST
T1 sequence (P60879 whole entry): as the sequence (P60879 whole entry, the tested form may be a part) above
T1 sequence (Q16623 192-254 limits assumed): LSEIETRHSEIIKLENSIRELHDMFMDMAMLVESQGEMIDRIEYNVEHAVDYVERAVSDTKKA
T1 sequence (P63045 2-94 limits assumed): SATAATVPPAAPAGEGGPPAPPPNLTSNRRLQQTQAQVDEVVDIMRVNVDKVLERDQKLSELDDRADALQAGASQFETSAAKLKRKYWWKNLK

Row | Structure (SMILES) | Norepinephrine release inhibiting effect (in words) (PC12 cell) | Inhibition of SNARE complex formation (in words) [1] | SNARE complex formation (%) [1] [%] | Ratio for inhibition by 50% (IR50), SNARE complex formation [1] | remaining activity at 20 µM [2] [%] | Reduction of membrane fusion (in words) [2] | Ratio for inhibition by 50% (IR50), membrane fusion [2]
1 | O=C(/C=C/c1ccc(O)c(O)c1)c1ccc(O)cc1O [Butein] | relatively high norepinephrine release inhibiting effects | inhibit the formation of a SNARE complex by 50% at a low concentration | 88.45 ± 7.09 | 30.5 | 16.9 ± 2.98 | can reduce membrane fusion | 0.81
2 | O=c1c(O)c(-c2cc(O)c(O)c(O)c2)oc2cc(O)cc(O)c12 [Myricetin] | relatively high norepinephrine release inhibiting effects | inhibit the formation of a SNARE complex by 50% at a low concentration | 72.13 ± 10.13 | 14.9 | 43.9 ± 8.38 | can reduce membrane fusion | 0.79
